Key:
hTRPA1 [1] = molecular target: T1, hTRPA1 (Homo sapiens, UniProt O75762, K186N); experiment: High throughput Ca2+ fluorescence (Fluo4) assay, AITC stimulation; assay type: cell-based
T1 construct: expressed in transfected cells; host or cells: HEK293/TREx (Invitrogen), induced with tetracycline
How it was run: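 Tetracycline-induced HEK293/TREx cells loaded with 1 μM Fluo4/AM for 60 min at room temperature. Compound added for 2 min after a 4-frame baseline, then AITC; fluorescence followed ~3 min.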

hTRPA1 [2] = molecular target: T1, hTRPA1; experiment: TRPA1 patch clamp (perforated patch, AITC-activated current); assay type: cell-based
Excerpt: Patch clamp experiments permit the detection of currents through the TRPA1 channel in the cell line described above. To permit recording of current at a stable level and prevent the “rundown” observed by other labs, it is necessary to use the perforated patch technique, which prevents dialysis of the cytoplasm with the pipette solution. In normal whole-cell patch clamp recordings, a glass electrode is brought into contact with a single cell and a high-resistance (gigaohm) seal is established with the cell membrane. The membrane is then ruptured to achieve the whole-cell configuration, permitting control of the voltage of the cell membrane and measurement of currents flowing across the membrane using the amplifier attached to the electrode and resulting in the replacement of cytoplasm with the pipette solution. In contrast, in the perforated patch mode, an antibiotic, amphotericin, is present in the pipette solution and diffuses into contact with the cell after the seal is achieved, over the course of several minutes. The amphotericin forms ion-permeable pores in the membrane under the pipette, permitting passage of some ions but maintaining most native cytosolic components. A perfusion system permits control of the extracellular solution, including the addition of blockers and activators of the current. The current can be activated by addition of 5 μM AITC to the solution. […] In some cases, cells were grown in low density overnight on glass coverslips. Patch clamp recordings were made in the whole-cell mode with a holding potential of −40 mV. Every 5 seconds, a voltage ramp was applied from −120 to +100 mV, 400 ms in duration. Currents elicited were quantified at −80 mV and +80 mV. […] The external solution consisted of 150 mM NaCl, 4.5 mM KCl, 3 mM MgCl2, 10 mM HEPES, […], 1 mM EGTA, pH 7.4. Upon addition of AITC, TRPA1 current was induced only in TRPA1-expressing cells and not in parental HEK293 TREx cells. Removal of the AITC stimulus causes most of the current to go away. Potential blockers were tested for ability to block both inward and outward currents in the continued presence of AITC.

[3] = Table 1, read-out: hTRPA1 Fluo4 IC50
[4] = Table 1, read-out: hTRPA1 Patch IC50
[5] = Table 2, read-out: hTRPA1 Fluor IC50
[6] = Table 2, inward current, read-out: hTRPA1 Patch Inwd IC50

T1 sequence (O75762 whole entry K186N): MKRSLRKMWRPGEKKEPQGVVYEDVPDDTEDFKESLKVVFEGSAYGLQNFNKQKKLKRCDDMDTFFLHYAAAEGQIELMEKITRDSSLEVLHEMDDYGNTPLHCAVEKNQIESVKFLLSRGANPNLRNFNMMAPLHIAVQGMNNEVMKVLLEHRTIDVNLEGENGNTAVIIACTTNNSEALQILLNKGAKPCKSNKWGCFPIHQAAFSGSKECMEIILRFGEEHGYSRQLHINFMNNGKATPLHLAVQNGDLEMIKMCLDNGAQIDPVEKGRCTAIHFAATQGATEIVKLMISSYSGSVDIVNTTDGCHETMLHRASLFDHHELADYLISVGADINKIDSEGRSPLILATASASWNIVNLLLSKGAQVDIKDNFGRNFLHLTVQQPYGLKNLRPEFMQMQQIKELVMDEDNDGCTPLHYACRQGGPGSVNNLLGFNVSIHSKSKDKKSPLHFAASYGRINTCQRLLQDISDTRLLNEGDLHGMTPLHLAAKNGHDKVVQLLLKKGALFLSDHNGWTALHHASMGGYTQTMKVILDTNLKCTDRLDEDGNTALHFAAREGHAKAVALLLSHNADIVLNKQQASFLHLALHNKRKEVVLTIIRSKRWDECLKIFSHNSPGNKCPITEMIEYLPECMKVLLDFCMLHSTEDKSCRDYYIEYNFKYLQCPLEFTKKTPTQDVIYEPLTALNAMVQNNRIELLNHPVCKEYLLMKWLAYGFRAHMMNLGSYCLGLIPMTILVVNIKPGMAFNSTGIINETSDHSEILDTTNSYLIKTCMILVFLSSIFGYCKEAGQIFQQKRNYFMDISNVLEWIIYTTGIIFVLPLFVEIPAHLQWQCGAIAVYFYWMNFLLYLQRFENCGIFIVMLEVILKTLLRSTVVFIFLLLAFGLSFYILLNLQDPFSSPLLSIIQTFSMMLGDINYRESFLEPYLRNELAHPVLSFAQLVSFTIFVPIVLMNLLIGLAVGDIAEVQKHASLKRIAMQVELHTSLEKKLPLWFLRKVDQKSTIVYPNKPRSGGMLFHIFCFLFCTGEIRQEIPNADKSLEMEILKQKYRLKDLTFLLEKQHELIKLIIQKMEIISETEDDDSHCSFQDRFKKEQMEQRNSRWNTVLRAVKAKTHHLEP

| SMILES | IC50 (hTRPA1 [1]; [3]) [µM] | IC50 (hTRPA1 [2]; [4]) [nM] | IC50 (hTRPA1 [2]; [6]) [nM] | further results |
| --- | --- | --- | --- | --- |
| COC(=O)C1=C(C)NC(=S)NC1c1ccccc1 (centres unmarked) | ≤ 5 | > 10000 | – | – |
| CCOc1ccc(C2NC(=S)NC(C)=C2C(=O)OC)cc1 (centres unmarked) | ≤ 5 | ≤ 10000 | – | – |
| CCOC(=O)C1=C(C)NC(=S)NC1c1cccc(O)c1 (centres unmarked) | ≤ 10 | > 10000 | – | – |
| CCOC(=O)C1=C(C)NC(=S)NC1c1cccc(OC)c1 (centres unmarked) | ≤ 5 | – | – | IC50 (hTRPA1 [2]; hTRPA1 Patch IC50 (nM), Table 1): ≤ 10000 nM |
| CCOC(=O)C1=C(c2ccccc2)NC(=S)NC1c1ccc(OC)cc1 (centres unmarked) | > 10 | > 10000 | – | – |
| CCOC(=O)C1=C(c2ccccc2)NC(=S)NC1c1ccc(OC(C)C)cc1 (centres unmarked) | ≥ 20 | > 10000 | – | – |
| CCOC(=O)C1=C(c2ccccc2)NC(=S)NC1c1cccc(OC)c1 (centres unmarked) | ≤ 5 | ≤ 5000 | – | – |
| CCOC(=O)C1=C(C)NC(=S)NC1c1cccc(OCC)c1 (centres unmarked) | ≤ 5 | ≤ 1000 | – | – |
| CCOC(=O)C1=C(c2ccccc2)NC(=S)NC1c1cc(C)ccc1C (centres unmarked) | > 10 | > 10000 | – | – |
| CCOC(=O)C1=C(c2ccccc2)NC(=S)NC1c1ccc(Cl)c(Cl)c1 (centres unmarked) | > 10 | > 10000 | – | – |
| COC(=O)C1=C(c2ccccc2)NC(=S)NC1c1ccc(F)cc1 (centres unmarked) | > 10 | > 10000 | – | – |
| COC(=O)C1=C(c2ccccc2)NC(=S)NC1c1ccccc1 (centres unmarked) | ≤ 5 | ≤ 5000 | – | – |
| CCCC1=C(C(=O)OCC)C(c2ccccc2Cl)NC(=O)N1 (centres unmarked) | ≤ 5 | > 10000 | – | – |
| COC(=O)C1=C(C)N(C)C(=O)NC1c1cccc(Br)c1 (centres unmarked) | ≤ 5 | > 10000 | – | – |
| COC(=O)C1=C(C)N(C)C(=O)NC1c1ccc(F)c(F)c1 (centres unmarked) | ≤ 5 | ≤ 1000 | – | – |
| CCOC(=O)C1=C(C)NC(=S)NC1c1ccccc1C (centres unmarked) | ≤ 5 | ≤ 5000 | – | – |
| COC(=O)C1=C(C)NC(=S)NC1c1ccc(OC)c(Br)c1 (centres unmarked) | ≤ 5 | ≤ 1000 | – | – |
| COC(=O)C1=C(C)NC(=S)NC1c1c(Cl)cccc1Cl (centres unmarked) | ≤ 5 | ≤ 1000 | – | – |
| COC(=O)C1=C(C)NC(=S)NC1c1cc(C)ccc1C (centres unmarked) | ≤ 5 | ≤ 5000 | – | – |
| COC(=O)C1=C(C)NC(=S)NC1c1cccc(Cl)c1Cl (centres unmarked) | ≤ 5 | ≤ 1000 | – | – |
| C=CCOc1cccc(C2NC(=S)NC(C)=C2C(=O)OCC)c1 (centres unmarked) | ≤ 5 | ≤ 1000 | – | – |
| COC(=O)C1=C(C)N(C)C(=O)NC1c1cc(O)ccc1Br (centres unmarked) | ≤ 5 | ≤ 5000 | – | – |
| COC(=O)C1=C(C)N(C)C(=O)NC1c1ccc(O)c(Cl)c1 (centres unmarked) | ≤ 5 | > 10000 | – | – |
| CC1=C(C(=O)OC(C)C)C(c2ccc(C)c(Br)c2)NC(=O)N1 (centres unmarked) | ≤ 5 | ≤ 500 | – | – |

| SMILES | IC50 (hTRPA1 [1]; [3]) [µM] | IC50 (hTRPA1 [2]; [4]) [nM] | IC50 (hTRPA1 [2]; [6]) [nM] | further results |
| --- | --- | --- | --- | --- |
| CN(C)c1ccc(NC(=O)Cn2cnc3c2c(=O)n(C)c(=O)n3C)cc1 [Compound 201] | – | – | > 10000 | IC50 (hTRPA1 [1]; [5]): ≥ 20 µM |
| Cn1c(=O)c2c(ncn2CC(=O)NC(c2ccccc2)c2ccccc2)n(C)c1=O [Compound 203] | – | – | > 10000 | IC50 (hTRPA1 [1]; [5]): > 10 µM |
| Cc1cc(Br)ccc1NC(=O)Cn1cnc2c1c(=O)n(C)c(=O)n2C [Compound 204] | – | – | > 10000 | IC50 (hTRPA1 [1]; [5]): ≤ 10 µM |
| Cn1c(=O)c2c(ncn2CC(=O)NCc2cccnc2)n(C)c1=O [Compound 206] | – | – | ≤ 10000 | IC50 (hTRPA1 [1]; [5]): > 10 µM |
| COc1ccc(NC(=O)Cn2cnc3c2c(=O)n(C)c(=O)n3C)cc1 [Compound 207] | – | – | ≤ 10000 | IC50 (hTRPA1 [1]; [5]): > 10 µM |
| CCOc1ccc(NC(=O)Cn2cnc3c2c(=O)n(C)c(=O)n3C)cc1 [Compound 208] | – | – | > 10000 | IC50 (hTRPA1 [1]; [5]): ≤ 10 µM |
| Cn1c(=O)c2c(ncn2CC(=O)Nc2ccc(C3CCCC3)cc2)n(C)c1=O [Compound 395, N-(4-cyclopentylphenyl)-2-(1,3-dimethyl-2,6-dioxo-1,2,3,6-tetrahydropurin-7-yl)acetamide] | – | – | ≤ 500 | – |
| Cn1c(=O)c2c(ncn2CC(=O)NCCc2ccc(Cl)c(Cl)c2)n(C)c1=O [Compound 396, N-[2-(3,4-Dichlorophenyl)-ethyl]-2-(1,3-dimethyl-2,6-dioxo-1,2,3,6-tetrahydro-purin-7-yl)-acetamide] | – | – | ≤ 1000 | – |
| CN(C)c1ccc(CCNC(=O)Cn2cnc3c2c(=O)n(C)c(=O)n3C)cc1 [Compound 397, N-[2-(4-Dimethylaminophenyl)-ethyl]-2-(1,3-dimethyl-2,6-dioxo-1,2,3,6-tetrahydropurin-7-yl)-acetamide] | – | – | ≤ 5000 | – |
| Cn1c(=O)c2c(ncn2CC(=O)Nc2ccccc2C2CCCC2)n(C)c1=O [Compound 398, N-(2-cyclopentylphenyl)-2-(1,3-dimethyl-2,6-dioxo-1,2,3,6-tetrahydropurin-7-yl)acetamide] | – | – | ≤ 10000 | – |
| CC(C)c1ccc(NC(=O)Cn2cnc3[nH]c(=O)[nH]c(=O)c32)cc1 [Compound 399, 2-(2,6-dioxo-1,2,3,6-tetrahydropurin-7-yl)-N-(4-isopropylphenyl)acetamide] | – | – | ≤ 10000 | – |
| Cc1ccc(CCNC(=O)Cn2cnc3c2c(=O)n(C)c(=O)n3C)cc1 [Compound 400, 2-(1,3-Dimethyl-2,6-dioxo-1,2,3,6-tetrahydro-purin-7-yl)-N-(2-p-tolyl-ethyl)-acetamide] | – | – | ≤ 1000 | – |
| COc1ccc(CCCNC(=O)Cn2cnc3c2c(=O)n(C)c(=O)n3C)cc1 [Compound 401, 2-(1,3-Dimethyl-2,6-dioxo-1,2,3,6-tetrahydropurin-7-yl)-N-[3-(4-methoxy-phenyl)-propyl]-acetamide] | – | – | ≤ 5000 | – |
| Cn1c(=O)c2c(ncn2CC(=O)Nc2ccc(C(C)(C)O)cc2)n(C)c1=O [Compound 402, 2-(1,3-dimethyl-2,6-dioxo-1,2,3,6-tetrahydropurin-7-yl)-N-(4-(2-hydroxypropan-2-yl)phenyl)acetamide] | – | – | ≤ 5000 | – |
| COc1ccccc1CCNC(=O)Cn1cnc2c1c(=O)n(C)c(=O)n2C [Compound 403, N-(2-methoxyphenethyl)-2-(1,3-dimethyl-2,6-dioxo-1,2,3,6-tetrahydropurin-7-yl)acetamide] | – | – | > 10000 | – |
| Cn1c(=O)c2c(ncn2CC(=O)NCCc2ccccc2F)n(C)c1=O [Compound 404, N-(2-fluorophenethyl)-2-(1,3-dimethyl-2,6-dioxo-1,2,3,6-tetrahydropurin-7-yl)acetamide] | – | – | ≤ 1000 | – |
| Cn1c(=O)c2c(ncn2CC(=O)NCCc2ccccc2Cl)n(C)c1=O [Compound 405, N-(2-chlorophenethyl)-2-(1,3-dimethyl-2,6-dioxo-1,2,3,6-tetrahydropurin-7-yl)acetamide] | – | – | ≤ 10000 | – |
| Cc1ccccc1CCNC(=O)Cn1cnc2c1c(=O)n(C)c(=O)n2C [Compound 406, N-(2-methylphenethyl)-2-(1,3-dimethyl-2,6-dioxo-1,2,3,6-tetrahydropurin-7-yl)acetamide] | – | – | ≤ 10000 | – |
| Cc1cccc(CCNC(=O)Cn2cnc3c2c(=O)n(C)c(=O)n3C)c1 [Compound 407, 2-(1,3-Dimethyl-2,6-dioxo-1,2,3,6-tetrahydropurin-7-yl)-N-[2-(3-methyl-phenyl)-ethyl]-acetamide] | – | – | ≤ 10000 | – |
| COc1cccc(CCNC(=O)Cn2cnc3c2c(=O)n(C)c(=O)n3C)c1 [Compound 408, 2-(1,3-Dimethyl-2,6-dioxo-1,2,3,6-tetrahydropurin-7-yl)-N-[2-(3-methoxy-phenyl)-ethyl]acetamide] | – | – | ≤ 5000 | – |
| Cn1c(=O)c2c(ncn2CC(=O)NCCc2ccc(C#N)cc2)n(C)c1=O [Compound 409, N-[2-(4-Cyanophenyl)-ethyl]-2-(1,3-dimethyl-2,6-dioxo-1,2,3,6-tetrahydro-purin-7-yl)-acetamide] | – | – | ≤ 10000 | – |
| CCOC(=O)C1=C(c2ccccc2)NC(=S)NC1c1cc(O)ccc1Br (centres unmarked) [drawing 264] | – | ≤ 1000 | – | – |
| CCOC(=O)C1=C(c2ccccc2)NC(=S)NC1c1cc(O)ccc1Br (centres unmarked) [drawing 265] | – | ≤ 500 | – | – |

From US7671061B2, “Methods and compositions for treating pain” (Hydra Biosciences, Inc., priority 2005, dated 2010)
